Series [1] concerns cervical carcinoma (HeLa). As to the kind of experiment: In vitro antiproliferative activity, HeLa. Format: cell-based, human. The settings on record: HeLa cells. On the procedure:
(§1) Antiproliferative activity of compounds 11a−11c, 12a−12c, 13a−13c, 14a−14c, 15a−15c, 16a, 23a−23c, 24a−24c, 25a−25c, 34a−34c and 35a−35c was evaluated in vitro on four human tumor cell lines (American Type Culture Collection, Manassas, VA, USA): metastatic colorectal adenocarcinoma (SW620), ductal pancreatic adenocarcinoma (CFPAC-1), hepatocellular carcinoma (HepG2) and cervical carcinoma (HeLa) as well as normal skin fibroblasts (HFF).

Series [2] concerns hepatocellular carcinoma (HepG2). As to the kind of experiment: In vitro antiproliferative activity, HepG2. To be noted: HepG2 cells. Format: cell-based, human. Here is the method:
as §1

Series [3] can be described thus: Turbidimetric kinetic solubility assay. To be noted: PBS, 1% DMSO, 37 °C, 2 h, estimated range.
Experimental: The turbidimetric solubility assay, which allows a rapid determination of the kinetic solubility of newly synthesized compounds using small amounts of their DMSO solutions, was used to assess the kinetic solubility [38].
The compounds’ DMSO stock solutions in concentration of 10 mM were serially diluted by factor 3.3×, 3×, 3.3× and 3× in DMSO. Prepared solutions were spiked into phosphate-buffered saline (PBS, 100 mM) to obtain final compounds’ concentrations of 100, 30, 10, 3 and 1 µM (3 µL of prepared dilutions were spiked to 297 µL of PBS, with final DMSO content of 1%, v/v). All compounds were tested in two replicas per concentration. Prepared solutions were incubated at 37 °C for 2 h with gentle shaking. Blank solutions were also prepared by spiking DMSO in PBS buffer (1% of DMSO, v/v). […] Compound/control samples are compared to the blank solution. […] Results were expressed as an estimated solubility range (lower and upper bound).
The subject of series [4] is normal skin fibroblasts (HFF). The experiment in a line: Cytotoxicity on non-tumor cells, HFF. Format: cell-based, human. On the procedure: as §1
Series [5] concerns ductal pancreatic adenocarcinoma (CFPAC-1). As to the kind of experiment: In vitro antiproliferative activity, CFPAC-1. Format: cell-based, human. The settings on record: CFPAC-1 cells. On the procedure:
as §1

Series [6] deals with metastatic colorectal adenocarcinoma (SW620). As to the kind of experiment: In vitro antiproliferative activity, SW620. Format: cell-based, human. To be noted: SW620 cells. Here is the method:
as §1

A short description of series [7]: Chrom logD determination (fast-gradient HPLC). The settings on record: pH 7.4.
Experimental: The distribution coefficient Chrom logD, a parameter used to assess the lipophilicity of compounds [36, 37], was determined for novel purine and purine isosteres with a ferrocene motif as shown in Table 1.
The distribution coefficient, Chrom logD, was determined from compounds’ gradient retention times by employing a high-performance liquid chromatography method with fast acetonitrile gradient. Compounds were prepared for analysis in final concentration of 1.25 mM by dilution of 10 mM stock solutions in DMSO with acetonitrile. Aqueous mobile phase was 50 mM ammonium acetate adjusted with ammonia solution to pH 7.4 and the organic mobile phase was acetonitrile. A reversed phase HPLC column Luna C18, 50 × 3 mm i.d., 5 µm particle size (Phenomenex, Torrance, CA, USA) was used for analysis. Sample injection volume was 2 µL and the flow rate was 1 mL min^−1. All compounds were analysed in duplicates. Fast-gradient elution was as follows: from 0 to 100% of acetonitrile (0−3 min), 100% of acetonitrile (3.0−3.5 min), from 100 to 0% of acetonitrile (3.5−3.7 min), and re-equilibration with 100% of aqueous mobile phase (3.7−5.0 min). All measurements were performed on an HPLC-DAD instrument Agilent 1100 Series (Agilent Technologies, Santa Clara, CA, USA) coupled with a mass spectrometer Micromass Quattro API (Waters, MA, USA). MassLynx software, version 4.1 (Waters, Manchester, UK) was used for data acquisition and processing. Before compound analysis, a calibration step was performed. A set of standard compounds with literature CHI values [36] were plotted against gradient retention times to obtain a calibration equation, which was used to determine CHI value from the compounds’ retention times.

Take `Nc1nc(Cl)c2ncn(Cc3cn(C[c-]4cccc4)nn3)c2n1.[Fe+2].c1cc[cH-]c1` [Compound 14a, 2-Amino-6-chloro-9-[1-(1-ferrocenymethyl-1,2,3-triazol-4-yl)methyl]-9H-purine]: the concentration for half-maximal inhibition (IC50) (commonly the concentration needed to halve the response being measured) is 71.4 ± 16.1 µM in series [1]; 60.1 ± 5.73 µM in series [2]; over 100 µM in series [4]; 49.5 ± 5.03 µM in series [5]; 60.2 ± 24.4 µM in series [6]. The “Kinetic Solubility” value in series [3] is 30 to 100 µM. Further, the “Chrom logD” value in series [7] was determined as 3.62.
For `[Fe+2].c1cc[c-](-c2cn(CCn3ccc4c(N5CCCC5)ncnc43)nn2)c1.c1cc[cH-]c1` [Compound 34b, 4-(Pyrrolidin-1-yl)-7-[2-(4-ferrocenyl-1,2,3-triazol-1-yl)ethyl]-7H-pyrrolo[2,3-d]pyrimidine], the half-maximal inhibitory concentration (IC50) in series [1], in series [2], in series [4], in series [5] and in series [6] was over 100 µM in each case. For the same molecule, the “Kinetic Solubility” value in series [3] is 10 to 30 µM. Moreover, the “Chrom logD” value in series [7] came out at 4.30.
Consider `Clc1ncnc2ncn(Cc3cn(-[c-]4cccc4)nn3)c12.[Fe+2].c1cc[cH-]c1` [Compound 15c, 6-Chloro-7-[1-(1-ferrocenyl-1,2,3-triazol-1-yl)methyl]-7H-purine], for which the IC50 came to 69.2 ± 25.5 µM in series [1]; 81.7 ± 17.1 µM in series [2]; 29.6 ± 4.28 µM in series [4]; 72.2 ± 13.7 µM in series [5]; 45.5 ± 4.52 µM in series [6]. Besides, the “Kinetic Solubility” value in series [3] is reported as over 100 µM. The “Chrom logD” value in series [7] is listed as 3.68.
Consider `[Fe+2].c1cc[c-](-c2cn(CCn3cnc4c(N5CCCC5)ncnc43)nn2)c1.c1cc[cH-]c1` [Compound 35b, 6-(Pyrrolidin-1-yl)-9-[2-(4-ferrocenyl-1,2,3-triazol-1-yl)ethyl]-9H-purine], for which the IC50 in series [1], in series [2], in series [4], in series [5] and in series [6] was over 100 µM in each case. Besides, the “Kinetic Solubility” value in series [3] is 30 to 100 µM. The “Chrom logD” value in series [7] came out at 3.58.
Take `Nc1ncnc2c1ncn2Cc1cn(-[c-]2cccc2)nn1.[Fe+2].c1cc[cH-]c1` [Compound 12c, 6-Amino-9-[1-(1-ferrocenyl-1,2,3-triazol-1-yl)methyl]-9H-purine]: the 50% inhibitory concentration (IC50) in series [1] is over 100 µM; in series [2], over 100 µM; in series [4], 54.5 ± 4.96 µM; in series [5] it was over 100 µM; in series [6], over 100 µM. Further, the “Kinetic Solubility” value in series [3] was 3 to 10 µM. Moreover, the “Chrom logD” value in series [7] was determined as 2.64.
Regarding `CC([c-]1cccc1)n1cc(Cn2cnc3c(N)ncnc32)nn1.[Fe+2].c1cc[cH-]c1` (stereo not shown) [Compound 12b, 6-Amino-9-[1-(1-ferrocenyl-1-methylmethyl-1,2,3-triazol-4-yl)methyl]-9H-purine], the concentration for half-maximal inhibition (IC50) in series [1] worked out at 76.4 ± 3.41 µM; in series [2], 68.6 ± 9.15 µM; in series [4] it was 18.4 ± 2.64 µM; in series [5], 70.2 ± 6.5 µM; in series [6] it was 75 ± 8.93 µM. Also, in series [3], the “Kinetic Solubility” value is reported as over 100 µM. In addition, the “Chrom logD” value in series [7] is listed as 3.09.
In the case of `Nc1ncnc2c1ncn2Cc1cn(C[c-]2cccc2)nn1.[Fe+2].c1cc[cH-]c1` [Compound 12a, 6-Amino-9-[1-(1-ferrocenymethyl-1,2,3-triazol-4-yl)methyl]-9H-purine], the IC50 is over 100 µM in series [1]; over 100 µM in series [2]; 56.6 ± 15.6 µM in series [4]; over 100 µM in series [5]; over 100 µM in series [6]. Moreover, the “Kinetic Solubility” value in series [3] was 30 to 100 µM. Also, the “Chrom logD” value in series [7] stood at 2.85.
Take `Nc1nc(Cl)c2c(ncn2Cc2cn(C[c-]3cccc3)nn2)n1.[Fe+2].c1cc[cH-]c1` [Compound 16a, 2-Amino-6-chloro-7-[1-(1-ferrocenymethyl-1,2,3-triazol-4-yl)methyl]-7H-purine]: the IC50 in series [1] is over 100 µM; in series [2], over 100 µM; in series [4] it was 5.3 ± 5.36 µM; in series [5], over 100 µM; in series [6], over 100 µM. The “Kinetic Solubility” value in series [3] is under 1 µM. In series [7], the “Chrom logD” value was determined as 3.37.
With `Clc1ncnc2c1ncn2Cc1cn(-[c-]2cccc2)nn1.[Fe+2].c1cc[cH-]c1` [Compound 13c, 6-Chloro-9-[1-(1-ferrocenyl-1,2,3-triazol-1-yl)methyl]-9H-purine], the IC50 in series [1] was 46.8 ± 6.72 µM; in series [2] it was 54.7 ± 3.21 µM; in series [4], 6.77 ± 2.78 µM; in series [5], 54.7 ± 5.13 µM; in series [6], 51.8 ± 1.9 µM. For the same molecule, the “Kinetic Solubility” value in series [3] is over 100 µM. For the same molecule, in series [7], the “Chrom logD” value amounted to 4.19.
Take `[Fe+2].c1cc[c-](-c2cn(CCn3ccc4c(N5CCCCC5)ncnc43)nn2)c1.c1cc[cH-]c1` [Compound 34c, 4-(Piperidin-1-yl)-7-[2-(4-ferrocenyl-1,2,3-triazol-1-yl)ethyl]-7H-pyrrolo[2,3-d]pyrimidine]: the IC50 in series [1] was 71.1 ± 15.9 µM; in series [2], 57.6 ± 13.8 µM; in series [4] it was 20.2 ± 1.54 µM; in series [5], 45.8 ± 9.11 µM; in series [6], 57.6 ± 6.55 µM. The “Kinetic Solubility” value in series [3] is 10 to 30 µM. For the same molecule, the “Chrom logD” value in series [7] came to 5.49.
Regarding `[Fe+2].c1cc[c-](-c2cn(CCn3cnc4c(N5CCCCC5)ncnc43)nn2)c1.c1cc[cH-]c1` [Compound 35c, 6-(Piperidin-1-yl)-9-[2-(4-ferrocenyl-1,2,3-triazol-1-yl)ethyl]-9H-purine], the half-maximal inhibitory concentration (IC50) in series [1] was over 100 µM; in series [2], over 100 µM; in series [4], 6.83 ± 2.17 µM; in series [5] it was over 100 µM; in series [6], over 100 µM. Moreover, in series [3], the “Kinetic Solubility” value was 10 to 30 µM. In addition, the “Chrom logD” value in series [7] worked out at 5.02.
`Clc1ncnc2c1ccn2CCn1cc(-[c-]2cccc2)nn1.[Fe+2].c1cc[cH-]c1` [Compound 34a, 4-Chloro-7-(2-(4-ferrocenyl-1,2,3-triazol-1-yl)ethyl)-7H-pyrrolo[2,3-d]pyrimidine]: the IC50 in series [1], in series [2], in series [4], in series [5] and in series [6] was over 100 µM throughout. For the same molecule, the “Kinetic Solubility” value in series [3] is 10 to 30 µM. In addition, the “Chrom logD” value in series [7] amounted to 4.92.
As to `Nc1nc(Cl)c2ncn(Cc3cn(-[c-]4cccc4)nn3)c2n1.[Fe+2].c1cc[cH-]c1` [Compound 14c, 2-Amino-6-chloro-9-[1-(1-ferrocenyl-1,2,3-triazol-1-yl)methyl]-9H-purine], the concentration for half-maximal inhibition (IC50) in series [1] is over 100 µM; in series [2], over 100 µM; in series [4] it was 24.6 ± 4.45 µM; in series [5], 90.5 ± 1.83 µM; in series [6] it was 81.3 ± 1.23 µM. Further, in series [3], the “Kinetic Solubility” value is listed as under 1 µM. For the same molecule, the “Chrom logD” value in series [7] was 3.50.
As for `CC([c-]1cccc1)n1cc(Cn2cnc3c(Cl)nc(N)nc32)nn1.[Fe+2].c1cc[cH-]c1` (stereo not shown) [Compound 14b, 2-Amino-6-chloro-9-[1-(1-ferrocenyl-1-methylmethyl-1,2,3-triazol-4-yl)methyl]-9H-purine], the IC50 was over 100 µM in series [1]; 77.1 ± 5.92 µM in series [2]; 11.5 ± 5.09 µM in series [4]; 67.4 ± 9.12 µM in series [5]; 98.7 ± 19.7 µM in series [6]. For the same molecule, in series [3], the “Kinetic Solubility” value was 30 to 100 µM. Further, the “Chrom logD” value in series [7] worked out at 3.90.
`Clc1ncnc2c1ncn2CCn1cc(-[c-]2cccc2)nn1.[Fe+2].c1cc[cH-]c1` [Compound 35a, 6-Chloro-9-[2-(4-ferrocenyl-1,2,3-triazol-1-yl)ethyl]-9H-purine]: the IC50 in series [1] turned out to be 63 ± 6.06 µM; in series [2], 48.1 ± 7.85 µM; in series [4] it was 6 ± 2.99 µM; in series [5], 65.3 ± 6.23 µM; in series [6], 78.2 ± 5.69 µM. In addition, the “Kinetic Solubility” value in series [3] was 10 to 30 µM. The “Chrom logD” value in series [7] amounted to 3.70.
Turning to `CC([c-]1cccc1)n1cc(Cn2cnc3c(Cl)ncnc32)nn1.[Fe+2].c1cc[cH-]c1` (stereo not shown) [Compound 13b, 6-Chloro-9-[1-(1-ferrocenyl-1-methylmethyl-1,2,3-triazol-4-yl)methyl]-9H-purine], the half-inhibitory concentration (IC50) in series [1] stood at 40.3 ± 4.52 µM; in series [2], 38.8 ± 10.1 µM; in series [4] it was 6.79 ± 1.06 µM; in series [5], 43.8 ± 10.9 µM; in series [6], 36.6 ± 3.42 µM. Besides, in series [3], the “Kinetic Solubility” value was 30 to 100 µM. The “Chrom logD” value in series [7] is reported as 4.64.

These data come from PMC7180452, “Purine and Purine Isostere Derivatives of Ferrocene: An Evaluation of ADME, Antitumor and Electrochemical Properties” (Molecules, 2020).
